PubChem BioAssay (NCI)
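Where inhibition never reached the appropriate level, the endpoint shown equals the highest concentration tested. Otherwise, values were interpolated linearly from a five-concentration, 48-hour dose response in 96-well plates. At the TGI there is no net growth.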

Columns and labels:
Experiment in all cases: NCI tumour cell line growth inhibition, 48 h
BT-549 breast = test system: BT-549 breast
SK-MEL-28 melanoma = test system: SK-MEL-28 melanoma
NCI-H460 lung = test system: NCI-H460 lung
HS 578T breast = test system: HS 578T breast
A549 NSCLC = test system: A549 NSCLC
ACHN renal = test system: ACHN renal
LOX IMVI melanoma = test system: LOX IMVI melanoma
MDA-MB-435 = test system: MDA-MB-435
OVCAR-5 ovarian = test system: OVCAR-5 ovarian
OVCAR-4 ovarian = test system: OVCAR-4 ovarian
DU-145 prostate = test system: DU-145 prostate
U251 CNS = test system: U251 CNS
A498 renal = test system: A498 renal
CCRF-CEM leukemia = test system: CCRF-CEM leukemia
SN12C renal = test system: SN12C renal
KM12 colon = test system: KM12 colon
UO-31 renal = test system: UO-31 renal
SF-539 CNS = test system: SF-539 CNS
SNB-75 CNS = test system: SNB-75 CNS
HT29 colon = test system: HT29 colon
NCI/ADR-RES ovarian = test system: NCI/ADR-RES ovarian
HL-60(TB) leukemia = test system: HL-60(TB) leukemia
RXF 393 renal = test system: RXF 393 renal
MOLT-4 leukemia = test system: MOLT-4 leukemia
NCI-H23 lung = test system: NCI-H23 lung
OVCAR-8 ovarian = test system: OVCAR-8 ovarian
HCT-116 colon = test system: HCT-116 colon
CAKI-1 renal = test system: CAKI-1 renal
SW-620 colon = test system: SW-620 colon
PC-3 prostate = test system: PC-3 prostate
MDA-N = test system: MDA-N
IGROV1 ovarian = test system: IGROV1 ovarian
HOP-92 NSCLC = test system: HOP-92 NSCLC
SF-295 CNS = test system: SF-295 CNS
EKVX NSCLC = test system: EKVX NSCLC
HCT-15 colon = test system: HCT-15 colon
MDA-MB-231 breast = test system: MDA-MB-231 breast
COLO 205 colon = test system: COLO 205 colon
NCI-H226 lung = test system: NCI-H226 lung
SK-MEL-5 melanoma = test system: SK-MEL-5 melanoma
786-0 renal = test system: 786-0 renal
K-562 leukemia = test system: K-562 leukemia
SK-MEL-2 melanoma = test system: SK-MEL-2 melanoma
UACC-257 melanoma = test system: UACC-257 melanoma
SK-OV-3 ovarian = test system: SK-OV-3 ovarian
HOP-62 NSCLC = test system: HOP-62 NSCLC
MCF7 breast = test system: MCF7 breast
OVCAR-3 ovarian = test system: OVCAR-3 ovarian
MALME-3M melanoma = test system: MALME-3M melanoma
RPMI-8226 leukemia = test system: RPMI-8226 leukemia
M14 melanoma = test system: M14 melanoma
TK-10 renal = test system: TK-10 renal
SF-268 CNS = test system: SF-268 CNS
UACC-62 melanoma = test system: UACC-62 melanoma
SR leukemia = test system: SR leukemia
T-47D breast = test system: T-47D breast
NCI-H522 lung = test system: NCI-H522 lung
HCC-2998 colon = test system: HCC-2998 colon
SNB-19 CNS = test system: SNB-19 CNS

## Nc1ncc(CN2CCOCC2)c(-c2ccccc2O)n1
BT-549 breast
  TGI: > 100 µM
SK-MEL-28 melanoma
  TGI: > 100 µM
NCI-H460 lung
  TGI: > 100 µM
HS 578T breast
  TGI: > 100 µM
A549 NSCLC
  TGI: > 100 µM
ACHN renal
  TGI: > 100 µM
LOX IMVI melanoma
  TGI: > 100 µM
MDA-MB-435
  TGI: > 100 µM
OVCAR-5 ovarian
  TGI: > 100 µM
OVCAR-4 ovarian
  TGI: > 100 µM
DU-145 prostate
  TGI: > 100 µM
U251 CNS
  TGI: > 100 µM
A498 renal
  TGI: > 100 µM
CCRF-CEM leukemia
  TGI: > 100 µM
SN12C renal
  TGI: > 100 µM
KM12 colon
  TGI: > 100 µM
UO-31 renal
  TGI: > 100 µM
SF-539 CNS
  TGI: > 100 µM
SNB-75 CNS
  TGI: > 100 µM
HT29 colon
  TGI: > 100 µM
NCI/ADR-RES ovarian
  TGI: > 100 µM
HL-60(TB) leukemia
  TGI: > 100 µM
RXF 393 renal
  TGI: > 100 µM
MOLT-4 leukemia
  TGI: > 100 µM
NCI-H23 lung
  TGI: > 100 µM
OVCAR-8 ovarian
  TGI: > 100 µM
HCT-116 colon
  TGI: > 100 µM
CAKI-1 renal
  TGI: > 100 µM
SW-620 colon
  TGI: > 100 µM
PC-3 prostate
  TGI: > 100 µM
MDA-N
  TGI: > 100 µM
IGROV1 ovarian
  TGI: > 100 µM
HOP-92 NSCLC
  TGI: > 100 µM
SF-295 CNS
  TGI: > 100 µM
EKVX NSCLC
  TGI: > 100 µM
HCT-15 colon
  TGI: > 100 µM
MDA-MB-231 breast
  TGI: > 100 µM
COLO 205 colon
  TGI: > 100 µM
NCI-H226 lung
  TGI: > 100 µM
SK-MEL-5 melanoma
  TGI: > 100 µM
786-0 renal
  TGI: > 100 µM
K-562 leukemia
  TGI: > 100 µM
SK-MEL-2 melanoma
  TGI: > 100 µM
UACC-257 melanoma
  TGI: > 100 µM
SK-OV-3 ovarian
  TGI: > 100 µM
HOP-62 NSCLC
  TGI: > 100 µM
MCF7 breast
  TGI: > 100 µM
OVCAR-3 ovarian
  TGI: > 100 µM
MALME-3M melanoma
  TGI: > 100 µM
RPMI-8226 leukemia
  TGI: > 100 µM
M14 melanoma
  TGI: > 100 µM
TK-10 renal
  TGI: > 100 µM
SF-268 CNS
  TGI: > 100 µM
UACC-62 melanoma
  TGI: > 100 µM
SR leukemia
  TGI: > 100 µM
T-47D breast
  TGI: > 100 µM

## COC(=O)/C(=C\c1cn(C(C)=O)c2ccccc12)P(=O)(OC)OC
BT-549 breast
  TGI: 29.6 µM
SK-MEL-28 melanoma
  TGI: 55.1 µM
NCI-H460 lung
  TGI: 31.1 µM
NCI-H522 lung
  TGI: 23.2 µM
HS 578T breast
  TGI: > 100 µM
A549 NSCLC
  TGI: 35.8 µM
ACHN renal
  TGI: 25.4 µM
LOX IMVI melanoma
  TGI: 20.3 µM
MDA-MB-435
  TGI: 64.7 µM
OVCAR-4 ovarian
  TGI: 30.2 µM
DU-145 prostate
  TGI: 26.2 µM
U251 CNS
  TGI: 29.5 µM
A498 renal
  TGI: 31.4 µM
CCRF-CEM leukemia
  TGI: > 100 µM
SN12C renal
  TGI: 28 µM
UO-31 renal
  TGI: 26.1 µM
SF-539 CNS
  TGI: 38.7 µM
SNB-75 CNS
  TGI: 26.4 µM
HCC-2998 colon
  TGI: 30.4 µM
HT29 colon
  TGI: 29.7 µM
NCI/ADR-RES ovarian
  TGI: > 100 µM
HL-60(TB) leukemia
  TGI: > 100 µM
RXF 393 renal
  TGI: 32.8 µM
MOLT-4 leukemia
  TGI: > 100 µM
NCI-H23 lung
  TGI: 30.2 µM
OVCAR-8 ovarian
  TGI: 68.9 µM
HCT-116 colon
  TGI: 28 µM
CAKI-1 renal
  TGI: 27 µM
SW-620 colon
  TGI: 40.7 µM
PC-3 prostate
  TGI: 39.8 µM
MDA-N
  TGI: 32.4 µM
IGROV1 ovarian
  TGI: 44.9 µM
HOP-92 NSCLC
  TGI: 33.8 µM
SF-295 CNS
  TGI: 28.5 µM
EKVX NSCLC
  TGI: 38 µM
HCT-15 colon
  TGI: 28.1 µM
MDA-MB-231 breast
  TGI: 24.1 µM
COLO 205 colon
  TGI: 33.3 µM
NCI-H226 lung
  TGI: > 100 µM
SK-MEL-5 melanoma
  TGI: 26.5 µM
786-0 renal
  TGI: 46.3 µM
K-562 leukemia
  TGI: > 100 µM
SK-OV-3 ovarian
  TGI: 39.2 µM
HOP-62 NSCLC
  TGI: 28.8 µM
SNB-19 CNS
  TGI: 32 µM
MCF7 breast
  TGI: 26.4 µM
OVCAR-3 ovarian
  TGI: 32.4 µM
MALME-3M melanoma
  TGI: 52 µM
RPMI-8226 leukemia
  TGI: 93.9 µM
M14 melanoma
  TGI: 28.5 µM
TK-10 renal
  TGI: 36 µM
SF-268 CNS
  TGI: 54 µM
UACC-62 melanoma
  TGI: 31.1 µM
SR leukemia
  TGI: > 100 µM
T-47D breast
  TGI: 33.1 µM
